Test results reported in US20160304547A1, “MACROLIDE COMPOUND” (PULIKE BIOLOGICAL ENGINEERING, INC, priority 2013, published 2016).
Converted amounts (≈) assume the structure as drawn. Where two headings read alike, the source gives them in different places.

Columns and labels:
[1] = system: Staphylococcus aureus CVCC26003; experiment: MIC by mini broth dilution technique (in vitro susceptibility); type: cell-based
Protocol: (§1) in vitro tests of susceptibility of the compounds according to the present disclosure against bacterial strains commonly used in laboratories. In accordance with the Performance Standards for Antimicrobial Disk Susceptibility Tests: Approved Standard published by the US National Committee for Clinical Laboratory Standards, the antibactetial activities of compounds prepared according to examples 5 to 187 were tested. The MICs (minimum inhibitory concentration) of the medicaments prepared according to the examples on the following bacterial strains were measured through mini broth dilution technique. Staphylococcus aureus CVCC26003, Streptococcus equines CVCC556. Actinobacillus pleuropneumoniae CVCC262, Haemophilus parasuis, and Pasteurella multocida CVCC399, which were purchased from the Control Institute of Veterinary Bioproducts and Pharmaceuticals, China. Liquid culture medium: CAMHB. […] Solid culture medium: NINA prepared according to the specification of the final product. The strains were taken out of a regrigerator at −20° C. to be revived, and were spreaded by streaking on the solid culture medium with an inoculating loop. The inoculated culture medium was cultured at 35° C. in a constant temperature incubator for 20 h. Monoclonal antibodies were selected from a well-grown culture plate and streaked on the solid culture medium. The inoculated culture medium was cultured at 35° C. in the constant temperature incubator for 20 h. […] A 96-well plate was used, and 100 μl of DMSO was added into each of wells 2 to 11, and 200 μl of ready-prepared medicament solution was added into the 1st well, 100 μl of the medicament solution was extracted from the 1st well and added into the 2nd well. Double dilution was performed until the 11th well, thereby forming 11 gradients. In this case, compound of parent plate was prepared. 3 μl of double diluted medicament solution was extracted with a 12-channel pipettor and added into wells 1-11 of a new disposable 96-well culture plate. The 12th well thereof is a controll well. For each medicament, there are two adjacent rows which are parallel. The transferred compound plate was reserved for later use. […] The dilution ratio was recorded, and the bacterial liquid for the tests was diluted according to the recorded dilution ratio. Subsequently, the bacterial suspension and the liquid culture medium were diluted in the proportion of 1:200. The diluted solution was reserved for later use.

[2] = system: Actinobacillus pleuropneumoniae CVCC262; experiment: as above; type: cell-based
Protocol: as §1, with “medium:” for “medium: CAMHB.”, “NINA prepared according to the specification of the final product.” left out

Haemophilus parasuis = experiment: as above; type: cell-based; conditions: Glaesserella parasuis, read-out: MIC values Haemophilus parasuis
Protocol: as §1, with “medium:” for “medium: CAMHB.”, “NINA prepared according to the specification of the final product.” left out

[3] = system: Pasteurella multocida CVCC399; experiment: as above; type: cell-based
Protocol: as §1, with “medium:” for “medium: CAMHB.”, “NINA prepared according to the specification of the final product.” left out

[4] = system: Streptococcus equines CVCC556; experiment: as above; type: cell-based
Protocol: as §1, with “medium:” for “medium: CAMHB.”, “NINA prepared according to the specification of the final product.” left out

[5] = system: Streptococcus pneumoniae CMCC 31203; experiment: In vivo antibacterial test, survival of infected BALB/c mice; conditions: CMCC31203, sc, 168 h, read-out: Animal survival rate
[6] = Staphylococcus aureus CVCC26003, broth dilution, read-out: MIC values Staphylococcus aureus CVCC26003
[7] = Actinobacillus pleuropneumoniae CVCC262, broth dilution, read-out: MIC values Actinobacillus pleuropneumoniae CVCC262
[8] = Haemophilus parasuis, broth dilution
[9] = Pasteurella multocida CVCC399, broth dilution, read-out: MIC values Pasteurella multocida CVCC399
[10] = Streptococcus equines CVCC556, broth dilution, read-out: MIC values Streptococcus equines CVCC556
[11] = BALB/c mice infected i.p. with Streptococcus pneumoniae, 5 mg per kg s.c. via neck for 3 consecutive days, deaths recorded until the seventh day

Row | Compound | MIC [1, 6] | MIC [2, 7] | MIC (Haemophilus parasuis; [8]) | MIC [3, 9] | MIC [4, 10] | responders at 5 mg/kg [5, 11] | MIC ([1]; Staphylococcus aureus, CVCC26003, read-out: MIC values Staphylococcus aureus CVCC26003) | MIC ([2]; Actinobacillus pleuropneumoniae, CVCC262, read-out: MIC values Actinobacillus pleuropneumoniae CVCC262) | MIC (Haemophilus parasuis) | MIC ([3]; Pasteurella multocida, CVCC399, read-out: MIC values Pasteurella multocida CVCC399) | MIC ([4]; Streptococcus, CVCC556, read-out: MIC values Streptococcus equines CVCC556) | responders at 5 mg/kg ([5]; Streptococcus pneumoniae)
1 | CC[C@@H]1OC(=O)[C@H](C)[C@H](OC2C[C@@](C)(OC)[C@](O)(CNCC(C)C)[C@H](C)O2)[C@@H](C)[C@@H](O[C@@H]2O[C@H](C)C[C@H](N(C)C)[C@H]2O)[C@](C)(O)C[C@@H](C)NC[C@@H](C)[C@H](O)[C@]1(C)O (stereo partly drawn) [syzx-12, (2R,3S,4R,5S,8R,10R,11R,12S,13S,14R)-13-[(2,6-dideoxy-3-C-methyl-3-O-methyl-4-C-[(isobutylamino)methyl]-α-L-ribopyranosyl)oxy]-2-ethyl-3,4,10-trihydroxy-3,5,8,10,12,14-hexamethyl-11-[[3,4,6-trideoxy-3-(dimethylamino)-β-D-xylo-hexopyranosy]oxy]-1-oxa-7-azacyclopentadecan-15-one] | ≤ 0.25 µg/mL | ≤ 0.25 µg/mL | ≤ 0.25 µg/mL | ≤ 0.25 µg/mL | ≤ 0.25 µg/mL | 70% | – | – | – | – | – | –
2 | CC[C@@H]1OC(=O)[C@H](C)[C@H](OC2C[C@@](C)(OC)[C@](O)(CNC(C)(C)C)[C@H](C)O2)[C@@H](C)[C@@H](O[C@@H]2O[C@H](C)C[C@H](N(C)C)[C@H]2O)[C@](C)(O)C[C@@H](C)NC[C@@H](C)[C@H](O)[C@]1(C)O (stereo partly drawn) [syzx-14] | ≤ 0.25 µg/mL | 0.5 µg/mL (≈ 0.61 µM) | ≤ 0.25 µg/mL | 0.25 µg/mL (≈ 0.305 µM) | ≤ 0.25 µg/mL | 70% | – | – | – | – | – | –
3 | CC[C@@H]1OC(=O)[C@H](C)[C@H](OC2C[C@@](C)(OC)[C@](O)(CN3CCCCC3)[C@H](C)O2)[C@@H](C)[C@@H](O[C@@H]2O[C@H](C)C[C@H](N(C)C)[C@H]2O)[C@](C)(O)C[C@@H](C)NC[C@@H](C)[C@H](O)[C@]1(C)O (stereo partly drawn) [syzx-15, (2R,3S,4R,5S,8R,10R,11R,12S,13S,14R)-13-[(2,6-dideoxy-3-C-methyl-3-O-methyl-4-C-[piperidinylmethyl]-α-L-ribopyranosyl)oxy]-2-ethyl-3,4,10-trihydroxy-3,5,8,10,12,14-hexamethyl-11-[[3,4,6-trideoxy-3-(dimethylamino)-β-D-xylo-hexopyranosy]oxy]-1-oxa-7-azacyclopentadecan-15-one] | ≤ 0.25 µg/mL | 0.5 µg/mL (≈ 0.601 µM) | ≤ 0.25 µg/mL | ≤ 0.25 µg/mL | ≤ 0.25 µg/mL | 70% | – | – | – | – | – | –
4 | CC[C@@H]1OC(=O)[C@H](C)[C@H](OC2C[C@@](C)(OC)[C@](O)(CNCC3CC3)[C@H](C)O2)[C@@H](C)[C@@H](O[C@@H]2O[C@H](C)C[C@H](N(C)C)[C@H]2O)[C@](C)(O)C[C@@H](C)NC[C@@H](C)[C@H](O)[C@]1(C)O (stereo partly drawn) [syzx-17, (2R,3S,4R,5S,8R,10R,11R,12S,13S,14R)-13-[(2,6-dideoxy-3-C-methyl-3-O-methyl-4-C-[(cyclopropylmethylamino)methyl]-α-L-ribopyranosyl)oxy]-2-ethyl-3,4,10-trihydroxy-3,5,8,10,12,14-hexamethyl-11-[[3,4,6-trideoxy-3-(dimethylamino)-β-D-xylo-hexopyranosy]oxy]-1-oxa-7-azacyclopentadecan-15-one] | ≤ 0.25 µg/mL | 2 µg/mL (≈ 2.44 µM) | ≤ 0.25 µg/mL | 0.25 µg/mL (≈ 0.306 µM) | ≤ 0.25 µg/mL | 70% | – | – | – | – | – | –
5 | CC[C@@H]1OC(=O)[C@H](C)[C@H](OC2C[C@@](C)(OC)[C@](O)(CNC3CCCC3)[C@H](C)O2)[C@@H](C)[C@@H](O[C@@H]2O[C@H](C)C[C@H](N(C)C)[C@H]2O)[C@](C)(O)C[C@@H](C)NC[C@@H](C)[C@H](O)[C@]1(C)O (stereo partly drawn) [syzx-30, (2R,3S,4R,5S,8R,10R,11R,12S,13S,14R)-13-[(2,6-dideoxy-3-C-methyl-3-O-methyl-4-C-[(cyclopentylamino)-methyl]-α-L-ribopyranosyl)oxy]-2-ethyl-3,4,10-trihydroxy-3,5,8,10,12,14-hexamethyl-11-[[3,4,6-trideoxy-3-(dimethylamino)-β-D-xylo-hexopyranosy]oxy]-1-oxa-7-azacyclopentadecan-15-one] | ≤ 0.25 µg/mL | 0.5 µg/mL (≈ 0.601 µM) | 0.5 µg/mL (≈ 0.601 µM) | ≤ 0.25 µg/mL | ≤ 0.25 µg/mL | 80% | – | – | – | – | – | –
6 | CC[C@@H]1OC(=O)[C@H](C)[C@H](OC2C[C@@](C)(OC)[C@](O)(CNCc3cccc(OC)c3)[C@H](C)O2)[C@@H](C)[C@@H](O[C@@H]2O[C@H](C)C[C@H](N(C)C)[C@H]2O)[C@](C)(O)C[C@@H](C)NC[C@@H](C)[C@H](O)[C@]1(C)O (stereo partly drawn) [syzx-35, (2R,3S,4R,5S,8R,10R,11R,12S,13S,14R)-13-[(2,6-dideoxy-3-C-methyl-3-O-methyl-4-C-[[3-methoxybenzyl-amino]-methyl]-α-L-ribopyranosyl)oxy]-2-ethyl-3,4,10-trihydroxy-3,5,8,10,12,14-hexamethyl-11-[[3,4,6-trideoxy-3-(dimethylamino)-β-D-xylo-hexopyranosy]oxy]-1-oxa-7-azacyclopentadecan-15-one] | – | – | – | – | – | – | 0.25 µg/mL (≈ 0.283 µM) | 0.25 µg/mL (≈ 0.283 µM) | 0.25 µg/mL (≈ 0.283 µM) | 1 µg/mL (≈ 1.13 µM) | 0.5 µg/mL (≈ 0.566 µM) | 70%
7 | CCCCCNC[C@]1(O)[C@H](C)OC(O[C@@H]2[C@@H](C)[C@@H](O[C@@H]3O[C@H](C)C[C@H](N(C)C)[C@H]3O)[C@](C)(O)C[C@@H](C)NC[C@@H](C)[C@H](O)[C@](C)(O)[C@H](CC)OC(=O)[C@@H]2C)C[C@@]1(C)OC (stereo partly drawn) [syzx-47, (2R,3S,4R,5S,8R,10R,11R,12S,13S,14R)-13-[(2,6-dideoxy-3-C-methyl-3-O-methyl-4-C-[[n-pentyl-amino]-methyl]-α-L-ribopyranosyl)oxy]-2-ethyl-3,4,10-trihydroxy-3,5,8,10,12,14-hexamethyl-11-[[3,4,6-trideoxy-3-(dimethylamino)-β-D-xylo-hexopyranosy]oxy]-1-oxa-7-azacyclopentadecan-15-one] | 1 µg/mL (≈ 1.2 µM) | 0.5 µg/mL (≈ 0.599 µM) | 0.5 µg/mL (≈ 0.599 µM) | ≤ 0.25 µg/mL | ≤ 0.25 µg/mL | 90% | – | – | – | – | – | –
8 | CC[C@@H]1OC(=O)[C@H](C)[C@H](OC2C[C@@](C)(OC)[C@](O)(CNCc3cnc(C)cn3)[C@H](C)O2)[C@@H](C)[C@@H](O[C@@H]2O[C@H](C)C[C@H](N(C)C)[C@H]2O)[C@](C)(O)C[C@@H](C)NC[C@@H](C)[C@H](O)[C@]1(C)O (stereo partly drawn) [syzx-65] | ≤ 0.25 µg/mL | 32 µg/mL (≈ 36.8 µM) | ≤ 0.25 µg/mL | 1 µg/mL (≈ 1.15 µM) | ≤ 0.25 µg/mL | 90% | – | – | – | – | – | –
